Reference: patent US20230247989A1, “Synergistic Biocide Composition With a Polyglycerol Ester” (Arch UK Biocides Ltd, priority 2020, published 2023)

Tested on: Pseudomonas aeruginosa ATCC 15442
Assay: Suspension test for synergy: log reduction of Pseudomonas aeruginosa after 5 min contact
Format: cell-based
Settings: for Log Reduction: 5 minutes contact
Method: The target organism Pseudomonas aeruginosa ATCC 15442 was taken from freezer stocks and grown for 24 hours on tryptone soy agar (TSA) at 37° C. A second subculture was produced from the first and grown with the same conditions. A test suspension was then created by adding loopfuls of organism to tryptone buffered saline and adjusting the cell concentration to 1×10^8 and 5×10^8 CFU/ml using an internally established calibration curve spectrophotometer at a wavelength of 600 nm. To establish the precise CFU/ml a 1 ml aliquot was then taken from the test suspension and serially diluted down to 10^−6 and 10^−7, 1 ml of each dilution was then plated in duplicate using the pour plate method on to TSA. The plates were then incubated for 24 hours at 37° C. and enumerated.
For each biocide tested a series of 3 samples were prepared in sterile distilled water,
Test sample 1—Biocide alone (to measure basic efficacy of the biocide)
Test sample 2—Biocide in combination with polyglyceryl-10 caprylate/caprate (to measure the efficacy of the combination of biocide and polyglycerol ester)
Control—A control sample of polyglyceryl-10 caprylate/caprate was prepared in deionized water to measure the efficacy of polyglycerol ester alone.
Each test sample was prepared at a concentration 10% higher than that of the target concentration to account for the dilution effect from the addition of the test organism suspension during the test procedure.
A test mixture was prepared by adding a 0.1 ml aliquot of test organism suspension to a tube followed by 0.9 ml of test sample (prepared as above). The combination was then mixed and a timer started immediately.
Upon achieving the specified contact time the test mixture was deactivated by adding a 0.1 ml aliquot of the test mixture to 0.9 ml of neutralizing broth and the whole solution mixed. The solution was left for 5 minutes to ensure the action of the biocide was effectively neutralized.
To quantify the surviving number of organisms in the neutralized test mixture, 4×0.025 ml aliquots were taken and spot plated onto the surface of dried TSA. The plates were then incubated for 24 hours at 37° C.
For spot plating, colonies from the incubated plates were enumerated using the lower count limit of <1 and the upper count limit of >150. […] For the upper limit, if 156 colonies were counted on a plate, >150 would be recorded and 150 would be used for the calculation.
Enumeration and Calculation of T (Test Mixture) • First, the mean average of cfu per 0.025 ml spots was established using the below calculation,
Log Reduction Calculations (N0−T) • Before calculating the log reduction both N0 and T were converted into a logarithm base 10 value. For example;
The test procedure outlined above was used to test for synergy between polyglyceryl-10 caprylate/caprate (PG1000) and the various biocidal agents listed in Table 1. Varying concentrations were prepared and were tested at 5 mins for the presence of Pseudomonas aeruginosa.

CCCCCCCCCCCCN(C)C.Cl [Dodecyledimethylammonuim chloride]
Log Reduction (biocide alone 20 ppm): 3.88

N=C(NCCCCCCNC(=N)NC(=N)Nc1ccc(Cl)cc1)NC(=N)Nc1ccc(Cl)cc1 [Chlorhexidine, reference compound]
Log Reduction (biocide alone 65 ppm): 3.44

CCCCCCCCCCCCN(CCCN)CCCN [N-(3-aminopropyl)-N-dodecylpropane-1,3-diamine]
Log Reduction (biocide alone 50 ppm): 2.98

polyglyceryl-10 caprylate/caprate [PGE Control]
Log Reduction (PGE alone 100 ppm in deionized water): <2.92
activity (in words) (at 100 ppm, 5 mins): little or no activity

CC(C)O [Isopropanol]
Log Reduction (biocide alone 16%): <2.85
